The values below come from paper PMC11687724, “Mechanism of connexin channel inhibition by mefloquine and 2-aminoethoxydiphenyl borate” (PLOS ONE, 2024).

For assay [1], the target named is T1, Cx43 (Homo sapiens, UniProt P17302).
T1 construct: gene GJA1; Cx43 gap junction channel
As to the kind of experiment: cryo-EM of Cx43 GJC at […] Å; gap-FRAP in HEK293F cells. The assay is classed as binding.

Assay [2] addresses T2, Cx32 (Homo sapiens, UniProt P08034). As to the kind of experiment: tryptophan fluorescence quenching; cryo-EM of Cx32 GJC at […] Å; dye uptake and gap-FRAP. On the set-up: gene GJB1; purified Cx32 (gap junction channel). Format: binding.
Assay [3] deals with T2, Cx32. As to the kind of experiment: biochemical. On the set-up: gene GJB1.

T2 sequence (P08034 whole entry): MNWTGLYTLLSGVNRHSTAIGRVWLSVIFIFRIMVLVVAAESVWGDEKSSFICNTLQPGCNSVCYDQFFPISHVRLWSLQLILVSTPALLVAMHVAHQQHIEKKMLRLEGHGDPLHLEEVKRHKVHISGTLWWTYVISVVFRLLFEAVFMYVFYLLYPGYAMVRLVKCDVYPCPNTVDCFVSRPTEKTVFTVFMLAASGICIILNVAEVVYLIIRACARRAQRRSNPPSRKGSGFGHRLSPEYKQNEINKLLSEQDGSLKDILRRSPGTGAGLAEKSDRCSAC
T1 sequence (P17302 2-382): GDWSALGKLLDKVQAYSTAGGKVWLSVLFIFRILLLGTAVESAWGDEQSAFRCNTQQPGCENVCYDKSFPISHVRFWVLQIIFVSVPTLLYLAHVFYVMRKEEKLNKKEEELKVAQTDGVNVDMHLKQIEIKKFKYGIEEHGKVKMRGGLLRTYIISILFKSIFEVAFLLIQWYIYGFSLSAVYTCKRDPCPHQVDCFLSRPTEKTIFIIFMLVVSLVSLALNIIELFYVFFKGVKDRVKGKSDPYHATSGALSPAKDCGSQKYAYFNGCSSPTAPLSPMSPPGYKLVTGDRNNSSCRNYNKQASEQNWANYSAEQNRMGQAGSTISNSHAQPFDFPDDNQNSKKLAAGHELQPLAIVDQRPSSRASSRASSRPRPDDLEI

In general, Kd refers to the concentration at which binding is half-saturated. High values mean a looser complex, low ones a tighter complex. For `O[C@H](c1cc(C(F)(F)F)nc2c(C(F)(F)F)cccc12)[C@@H]1CCCCN1` (racemic) [MFQ, mefloquine], the “cryo-EM of Cx43 GJC at 3.7 Å; gap-FRAP in HEK293F cells” value in assay [1] is recorded as “a prominent additional density corresponding to MFQ was observed within the region corresponding to site M”. In addition, the Kd in assay [2] is 43.1 µM.

Compound `NCCOB(c1ccccc1)c1ccccc1` [2APB, 2-aminoethoxydiphenyl borate] showed a Kd in assay [3] of 1.05 µM.
